# Experimental data from US20170143835A1, “SUBSTITUTED ANIONIC COMPOUNDS CONSISTING OF A BACKBONE MADE UP OF A DISCRETE NUMBER OF SACCHARIDE UNITS” (ADOCIA, priority 2012, published 2017).
# Assays:
# serum albumin (BSA) = serum albumin (BSA) (Bos taurus, UniProt P02769); experiment: Fluorescence test for interaction with albumin; format: binding, bovine; details: for Result F/F0 <0.5: compound/BSA weight ratio 1, excitation 280 nm, emission 350 nm; for Result F/F0 <0.5 / Result F/F0 <0.85: BSA 0.5 mg/ml, PBS pH 7.4
# Description: The test carried out is a “fluorescence” test with albumin, which makes it posible, by measuring the variations in fluorescence of albumin, to verify whether an interaction exists between the compound tested and albumin.
# The compound/albumin solutions are prepared from stock solutions of compounds and of serum albumin (BSA) by mixing the appropriate volumes in order to obtain a fixed BSA concentration at 0.5 mg/ml and compound/BSA weight ratios of 1, 5 and 10. These solutions are prepared in a PBS buffer at pH 7.4.
# 200 μl of the various compound/BSA solutions are introduced into a 96-well plate. The fluorescence measurements are carried out at room temperature (20° C.) with an EnVision® fluorescence spectrometer (PerkinElmer). The excitation wavelength is 280 nm and the emission wavelength is 350 nm. This corresponds to the fluorescence of the tryptophan residues of albumin (Ruiz-Peña M. et al., M, A. Physico-chemical studies of molecular interactions between non-ionic surfactants and bovine serum albumin, Colloids Surf. B Biointerfaces 2010, 75, 282-289). The F (compound/BSA)/F0 (BSA alone) ratio makes it possible to evaluate the interaction between the compound and albumin. If this ratio is less than 1, this means that the compound induces partial quenching of the albumin fluorescence linked to a change in environment of the tryptophan residues. This change reflects an interaction between the compound and albumin. It was verified, as a control, that, for all the compounds tested, the fluorescence of the compound alone is negligible considering the fluorescence of albumin (fluorescence (compound) <2% fluorescence (albumin)).
# lysozyme = target: T1, lysozyme (Gallus gallus, UniProt P00698); experiment: Turbidity measurement assays of compound/lysozyme solutions; format: physicochemical; details: for Turbidity of the solutions at the molar ratio 0.1: compound/lysozyme molar ratio 0.1; for Turbidity of the solutions at the molar ratio 0.1 / Turbidity of the solutions at the molar ratio 0.5: histidine buffer pH 6.2, NaCl, HACH 2100AN turbidity meter; for Turbidity of the solutions at the molar ratio 0.5: compound/lysozyme molar ratio 0.5; for turbidity of the compound/lysozyme solution compared with the counterexample/lysozyme solutions: whatever the ratio
# T1 construct: purchased Sigma-Aldrich L6876
# Description: The turbidity of solutions in which a “model” protein, lysozyme and either a compound according to the invention or a counterexample compound are brought together is analyzed in the compound/lysozyme molar ratios of 0, 0.1 and 0.5.
# The following solutions are prepared beforehand: histidine buffer solution, pH 6.2±0.1, at 194 mM (30 mg/ml), sodium chloride (NaCl) solution at 5017 mM (293 mg/ml), solution of lysozyme (Sigma-Aldrich, Ref L6876, CAS#12650-88-3) at […] ([…]), and solutions of each of the test products (pH 6.2±0.1), i.e. compounds according to the invention and counterexamples.
# For each of the solutions of compounds to be prepared, 3 ml of an aqueous solution of compound are adjusted to pH 6.2±0.1 using 50±25 μl of a 0.1N hydrochloric acid (HCl) solution.
# The test solutions at the compound/lysozyme molar ratios: 0, 0.1 and 0.5 are then prepared as follows.
# The sodium chloride (NaCl) solution at 5017 mM, the histidine buffer solution at 194 mM and then the solution of compound are successively added to water, which results in a mixture which is homogenized on a roller mixer (Stuart Roller Mixer SRT9D) for 1 minute.
# The lysozyme solution is, finally, added and then the final mixture is homogenized on the roller mixer for 1 minute.
# The turbidity (expressed in NTU) for each of the final test solutions is measured using a HACH 2100AN turbidity meter.
# The turbidity of the compound 1/lysozyme solution is analyzed in comparison with that of the counterexample A1/lysozyme and counterexample A2/lysozyme solutions. The turbidity of the compound 13/lysozyme solution is analyzed in comparison with that of the counterexample B1/lysozyme and counterexample B2/lysozyme solutions.
# Sequence of serum albumin (BSA) (P02769 25-607): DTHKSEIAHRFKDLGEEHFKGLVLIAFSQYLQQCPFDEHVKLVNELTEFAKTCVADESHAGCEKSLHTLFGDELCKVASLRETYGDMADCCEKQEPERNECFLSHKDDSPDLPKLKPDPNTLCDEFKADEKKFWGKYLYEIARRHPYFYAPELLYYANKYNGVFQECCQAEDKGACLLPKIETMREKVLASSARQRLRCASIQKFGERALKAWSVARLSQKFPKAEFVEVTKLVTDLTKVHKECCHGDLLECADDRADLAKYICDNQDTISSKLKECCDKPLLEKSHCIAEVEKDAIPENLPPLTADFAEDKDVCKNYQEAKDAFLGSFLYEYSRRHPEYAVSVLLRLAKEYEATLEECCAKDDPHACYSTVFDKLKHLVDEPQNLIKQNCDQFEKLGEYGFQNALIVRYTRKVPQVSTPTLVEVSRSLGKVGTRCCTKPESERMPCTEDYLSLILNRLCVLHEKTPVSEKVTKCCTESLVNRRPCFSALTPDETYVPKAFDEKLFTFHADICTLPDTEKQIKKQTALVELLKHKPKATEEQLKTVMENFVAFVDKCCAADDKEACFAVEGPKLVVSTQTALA
# T1 sequence (P00698 19-147): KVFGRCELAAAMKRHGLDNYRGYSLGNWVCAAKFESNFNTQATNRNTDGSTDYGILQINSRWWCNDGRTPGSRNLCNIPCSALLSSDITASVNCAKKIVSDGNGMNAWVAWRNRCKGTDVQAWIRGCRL
substance,measurement,setting,value
Sodium maltotriosesuccinate Functionalized with dilauryl aspartate [Compound 22],Result F/F0 <0.5,serum albumin (BSA),YES
Sodium maltotriosemethylcarboxylate Functionalized with L-phenylalanine [Compound 1],Turbidity of the solutions at the molar ratio 0.1,lysozyme,55 NTU
same,Turbidity of the solutions at the molar ratio 0.5,lysozyme,4.8 NTU
same,turbidity of the compound/lysozyme solution compared with the counterexample/lysozyme solutions,lysozyme,lower
Sodium maltotriosemethylcarboxylate Functionalized with N-(2-aminoethyl)dodecanamide [Compound 21],Result F/F0 <0.5,serum albumin (BSA),YES
Sodium maltotriosemethylcarboxylate Functionalized with 2-aminoethyl dodecanoate [Compound 29],Result F/F0 <0.5,serum albumin (BSA),YES
Sodium maltotriosemethylcarboxylate Functionalized with cholesteryl leucinate [Compound 13],Turbidity of the solutions at the molar ratio 0.1,lysozyme,32 NTU
same,Turbidity of the solutions at the molar ratio 0.5,lysozyme,395 NTU
same,turbidity of the compound/lysozyme solution compared with the counterexample/lysozyme solutions,lysozyme,lower
Sodium maltotriosemethylcarboxylate Functionalized with L-phenylalanine [Compound 2],Result F/F0 <0.85,serum albumin (BSA); compound/BSA weight ratio 5,YES
same,Result F/F0 <0.85,serum albumin (BSA); compound/BSA weight ratio 10,YES
same,fluorescence ratio F/F0,serum albumin (BSA); compound/BSA weight ratio of 5,< 0.85
same,fluorescence ratio F/F0,serum albumin (BSA); compound/BSA weight ratio of 10,< 0.85
"Sodium maltotriosemethylcarboxylate Functionalized with 3,7-dimethyloctanoyl phenylalaninate [Compound 30]",Result F/F0 <0.5,serum albumin (BSA),YES
Sodium maltotriosemethylcarboxylate Functionalized with decanoyl glycinate [Compound 23],Result F/F0 <0.5,serum albumin (BSA),YES
Sodium maltotriosemethylcarboxylate Functionalized with 2-[(2octanoylamino-6-octanoylamino)hexanoylamino]ethanamine [Compound 27],Result F/F0 <0.5,serum albumin (BSA),YES
Sodium maltotriosemethylcarboxylate Functionalized with 2-[(2-dodecanoylamino-6-dodecanoylamino)hexanoylamino]ethanamine [Compound 20],Result F/F0 <0.5,serum albumin (BSA),YES
